The values below come from ChEMBL document CHEMBL4418912, “Methods of identifying antagonists of the hTAS2R46 bitter taste receptor” (2014).

Active and inactive are the calls of the source. The calls are words filed in the database; no cut-off is given here.

What all share (assay type): functional, cell-based
Assay [1] has as its target T1, Taste receptor type 2 member 10 (Homo sapiens) (UniProt Q9NYW0).
T1 sequence (whole entry): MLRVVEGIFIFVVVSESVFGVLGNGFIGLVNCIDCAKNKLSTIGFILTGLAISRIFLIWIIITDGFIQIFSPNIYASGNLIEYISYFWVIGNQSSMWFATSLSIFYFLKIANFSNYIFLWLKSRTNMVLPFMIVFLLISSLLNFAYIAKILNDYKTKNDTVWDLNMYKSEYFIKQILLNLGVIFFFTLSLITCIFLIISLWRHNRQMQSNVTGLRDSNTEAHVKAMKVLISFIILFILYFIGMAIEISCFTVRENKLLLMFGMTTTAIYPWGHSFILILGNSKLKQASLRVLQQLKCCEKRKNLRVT
The assay is described as follows: Competitive-antagonist activity at recombinant human N-terminal rat ST3 receptor-fused TAS2R10 expressed in HEK293T cells co-expressing Galpha16gust44 assessed as inhibition of strychnine-induced increase in intracellular calcium level by measuring maximum signal amplitude at 10 uM by FLIPR assay (reference value: 0.42 +/- 0.09 a.u.). On the technique in general: Calcium flux is commonly read through the fluorescence of an indicator in the cells.

Assay [2] concerns the target T2, Taste receptor type 2 member 38 (Homo sapiens) (UniProt P59533).
T2 sequence (whole entry): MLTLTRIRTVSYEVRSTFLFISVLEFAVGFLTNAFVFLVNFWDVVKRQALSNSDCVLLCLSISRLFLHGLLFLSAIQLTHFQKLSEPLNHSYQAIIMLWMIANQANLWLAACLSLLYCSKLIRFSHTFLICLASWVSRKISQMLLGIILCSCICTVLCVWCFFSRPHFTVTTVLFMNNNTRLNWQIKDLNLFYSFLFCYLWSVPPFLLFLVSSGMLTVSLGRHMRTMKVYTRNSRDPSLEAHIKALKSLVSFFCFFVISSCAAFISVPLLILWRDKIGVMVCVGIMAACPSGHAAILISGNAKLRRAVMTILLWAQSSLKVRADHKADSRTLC
The assay can be described thus: Agonist activity at recombinant human N-terminal rat ST3 receptor-fused TAS2R38 expressed in HEK293T cells co-expressing Galpha16gust44 assessed as increase in intracellular calcium level at 100 uM by FLIPR assay.

The target in assay [3] is T3, Taste receptor type 2 member 7 (Homo sapiens) (UniProt Q9NYW3).
T3 sequence (whole entry): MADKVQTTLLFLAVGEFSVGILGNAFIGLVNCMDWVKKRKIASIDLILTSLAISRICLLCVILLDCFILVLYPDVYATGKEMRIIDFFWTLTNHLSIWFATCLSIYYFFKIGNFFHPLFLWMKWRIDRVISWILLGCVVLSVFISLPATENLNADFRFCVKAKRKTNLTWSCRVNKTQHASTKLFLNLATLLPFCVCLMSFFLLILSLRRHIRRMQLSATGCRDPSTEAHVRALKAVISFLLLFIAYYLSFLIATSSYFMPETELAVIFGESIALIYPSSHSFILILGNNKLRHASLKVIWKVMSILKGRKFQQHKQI
The assay is described as follows: Agonist activity at recombinant human N-terminal rat ST3 receptor-fused TAS2R7 expressed in HEK293T cells co-expressing Galpha16gust44 assessed as increase in intracellular calcium level at 100 uM by FLIPR assay.

In assay [4] the target is T4, Taste receptor type 2 member 9 (Homo sapiens) (UniProt Q9NYW1).
T4 sequence (whole entry): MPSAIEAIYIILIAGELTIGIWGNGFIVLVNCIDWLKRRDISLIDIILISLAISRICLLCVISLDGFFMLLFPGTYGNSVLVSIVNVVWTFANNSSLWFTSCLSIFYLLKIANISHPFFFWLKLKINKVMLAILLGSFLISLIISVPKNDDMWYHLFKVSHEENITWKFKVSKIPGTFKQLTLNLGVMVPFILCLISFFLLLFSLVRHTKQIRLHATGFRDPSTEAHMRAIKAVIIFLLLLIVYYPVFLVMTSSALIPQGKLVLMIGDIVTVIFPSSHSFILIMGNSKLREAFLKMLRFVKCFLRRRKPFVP
The assay is described as follows: Agonist activity at recombinant human N-terminal rat ST3 receptor-fused TAS2R9 expressed in HEK293T cells co-expressing Galpha16gust44 assessed as increase in intracellular calcium level at 100 uM by FLIPR assay.

In assay [5] the target is Taste receptor type 2 member 41 (Homo sapiens) (UniProt P59536). The assay can be described thus: Agonist activity at recombinant human N-terminal rat ST3 receptor-fused TAS2R41 expressed in HEK293T cells co-expressing Galpha16gust44 assessed as increase in intracellular calcium level at 100 uM by FLIPR assay.
Chain of Taste receptor type 2 member 41 (Homo sapiens) (P59536 whole entry, the tested form may be a part): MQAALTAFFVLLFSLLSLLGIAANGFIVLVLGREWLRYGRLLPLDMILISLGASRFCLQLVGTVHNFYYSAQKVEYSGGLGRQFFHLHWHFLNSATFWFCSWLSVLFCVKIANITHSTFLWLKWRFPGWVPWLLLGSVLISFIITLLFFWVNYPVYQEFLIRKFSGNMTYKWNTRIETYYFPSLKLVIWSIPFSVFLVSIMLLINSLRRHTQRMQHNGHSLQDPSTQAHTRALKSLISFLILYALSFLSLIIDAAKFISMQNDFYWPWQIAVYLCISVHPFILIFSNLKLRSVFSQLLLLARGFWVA
The target of assay [6] is T1, Taste receptor type 2 member 10 (Homo sapiens). The assay is described as follows: Competitive-antagonist activity at recombinant human N-terminal rat ST3 receptor-fused TAS2R10 expressed in HEK293T cells co-expressing Galpha16gust44 assessed as inhibition of strychnine-induced increase in intracellular calcium level by measuring maximum signal amplitude at 100 uM by FLIPR assay (reference value: 0.42 +/- 0.09 a.u.).

In assay [7] the target is T5, Taste receptor type 2 member 4 (Homo sapiens) (UniProt Q9NYW5).
T5 sequence (whole entry): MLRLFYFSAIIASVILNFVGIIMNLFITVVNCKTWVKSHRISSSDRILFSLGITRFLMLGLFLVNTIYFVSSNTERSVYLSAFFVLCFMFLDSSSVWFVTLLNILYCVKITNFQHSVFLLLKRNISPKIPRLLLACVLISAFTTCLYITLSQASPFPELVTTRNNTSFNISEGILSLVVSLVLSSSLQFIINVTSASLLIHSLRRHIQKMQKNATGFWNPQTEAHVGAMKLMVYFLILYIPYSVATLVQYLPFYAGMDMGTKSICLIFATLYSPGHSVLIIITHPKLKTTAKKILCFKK
The assay is described as follows: Agonist activity at recombinant human N-terminal rat ST3 receptor-fused TAS2R4 expressed in HEK293T cells co-expressing Galpha16gust44 assessed as increase in intracellular calcium level at 100 uM by FLIPR assay.

Assay [8] has as its target T6, Taste receptor type 2 member 31 (Homo sapiens) (UniProt P59538).
T6 sequence (whole entry): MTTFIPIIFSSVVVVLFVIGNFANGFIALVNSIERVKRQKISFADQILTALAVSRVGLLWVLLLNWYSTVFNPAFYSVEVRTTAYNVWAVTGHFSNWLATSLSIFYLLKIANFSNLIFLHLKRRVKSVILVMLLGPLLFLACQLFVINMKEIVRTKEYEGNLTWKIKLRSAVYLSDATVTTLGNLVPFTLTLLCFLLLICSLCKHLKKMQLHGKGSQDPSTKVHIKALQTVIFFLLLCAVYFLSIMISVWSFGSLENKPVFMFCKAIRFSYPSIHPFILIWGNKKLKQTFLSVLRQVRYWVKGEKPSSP
The assay can be described thus: Agonist activity at recombinant human N-terminal rat ST3 receptor-fused TAS2R44 expressed in HEK293T cells co-expressing Galpha16gust44 assessed as increase in intracellular calcium level at 100 uM by FLIPR assay.

On to `C/C1=C\C[C@H](O)/C(C)=C/[C@H]2OC(=O)[C@@H](C)[C@@H]2CC1`, for which the Activity was found to be 0.4 a.u in assay [1] and 0.34 a.u in assay [6]. For the same compound, the result in assay [2], in assay [3], in assay [7] and in assay [8] was Active. Further, the result in assay [4] and in assay [5] was inactive.
